“And” between values parts separate entries of the source, which are not always exact repeats. Equal entries are not always repeated. Residues, ends and D or L forms follow the SMILES beside them.

As usually defined, the Ki is the dissociation constant of the complex between target and ligand, obtained from inhibition or displacement. A high value points to a looser hold on the target. A word on the pA2: it is a measure of antagonist potency on a negative log scale. The low end stands for lower antagonist potency, the high end for higher antagonist potency.

One data set deals with T1, bradykinin receptor (Cavia porcellus, UniProt O70526).
T1 construct: from tissue; host or cells: guinea pig terminal ileum, washed membrane homogenate
T1 sequence (O70526 1-372): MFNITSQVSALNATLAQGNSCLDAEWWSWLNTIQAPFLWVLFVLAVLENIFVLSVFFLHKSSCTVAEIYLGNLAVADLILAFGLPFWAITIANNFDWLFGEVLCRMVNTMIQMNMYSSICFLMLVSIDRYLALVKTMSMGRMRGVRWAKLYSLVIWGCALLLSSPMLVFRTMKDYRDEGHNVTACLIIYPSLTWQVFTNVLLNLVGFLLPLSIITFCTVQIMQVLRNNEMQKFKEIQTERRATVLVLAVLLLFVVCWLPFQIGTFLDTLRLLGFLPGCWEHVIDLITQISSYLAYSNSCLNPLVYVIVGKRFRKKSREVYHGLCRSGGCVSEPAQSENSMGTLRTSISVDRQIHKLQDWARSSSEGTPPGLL
The data set can be described thus: 3H-Bradykinin binding assay, guinea pig terminal ileum homogenate. To be noted: competition with 3H-bradykinin (~0.3 nM), guinea pig terminal ileum membranes, 90 min ambient temperature. As for the experimental part:
Bradykinin Binding Procedure
Binding of ^3H-Bradykinin was preformed using the method of D. C. Manning, R. Vavrek, J. M. Stewart, and S. H. Synder, J. Pharmacol. Exp. Ther., (1986), 237, 504. The tissues used in the binding assay were terminal ileum from male Hartley guinea pigs (150-350 g). After dissection, tissues were placed in 20 vol of ice-cold buffer A (25 mM TES containing 0.2 g/L of 1,10-phenanthroline adjusted to pH 6.8 with ammonium hydroxide) and homogenized using a Ploytron Tissumizer at setting 6 for 15 sec. The homogenate was centrifuged at 50,000 x g for 10 min, the supernatant discarded, and the pellet resuspended in ice-cold buffer A by homogenization with the Polytron. Each tissue was homogenized and centrifuged three times. The final pellet was resuspended in buffer A containing bovine serum albumin (1 g/L) and Bacitracin (0.14 g/L) to a final volume of 170 mL/g of the original tissue weight. The binding assay consisted of 1 mL in 12×75 mm polypropylene tubes: 50 uL ^3H-bradykinin (20,000 dpm, ˜0.3 nM in the final assay volume), […] displacing drug in buffer A, and 750 uL tissue homogenate. Each tray contained tubes, to which no drug was added to measure maximum binding and tubes to which bradykinin (1 uM final concentration) had been added, to measure […]. Specific binding accounted for 96-98% total binding. Tubes were incubated for 90 min at ambient temperature. The assays were terminated by filtration over Whatman GF/B glass fiber filters that had been pretreated for 2 hours with polyethyleneimine (2 g/L) using a Brandel Tissue Harvester, followed by washing with 4×1 mL aliquots of ice-cold 50 mM Tris, pH 7.4. Filters were dissolved in Ready-Safe Fluor (Beckman) for at least 90 min before quantitation by liquid scintillation spectrometry. Kd values were determined using saturation binding and analysis by EBDA (G. A. MacPherson, J. Pharmacol. Methods, (1985), 213), followed by LIGAND (P. J. Munson, D. Rodbard, Anal. Biochem., (1980), 220). Ki values were determined using competitive analysis followed by EBDA and LIGAND. The following test results were obtained.

Data set [1] deals with T2, bradykinin receptors on intestinal (ileal longitudinal) smooth muscle (Cavia porcellus, UniProt O70526).
T2 construct: The longitudinal muscle was separated from the underlying circular muscle; from tissue; host or cells: guinea pig ileal longitudinal smooth muscle strips
T2 sequence (O70526 1-372): T1 sequence (O70526 1-372)
The data set can be described thus: Bradykinin antagonist activity on guinea pig ileal longitudinal smooth muscle (Schild analysis). Format: cell-based. To be noted: antagonism of bradykinin-induced contraction, 5 min antagonist exposure; for Kb: read-out: pA2 (converted). As for the experimental part: Determination of Bradykinin Antagonist Activity
Guinea pig intestine was removed and placed in a Petri dish containing Tyrodes solution and cut into 3-4 cm segments. The longitudinal muscle was separated from the underlying circular muscle using a cotton applicator (Paton and Zar, J. Physiol., (1968), 194:13. Muscle strips were connected to isometric force-displacement transducers (Grass or Gould) coupled to a physiograph and placed in tissue baths containing Tyrode's solution at 37° C. Each preparation was suspended under a resting tension of 2 g.
After equilibration of the tissues, appropriate volumes of bradykinin solutions were cumulatively added to the 10 mL tissue baths to increase the concentration of bradykinin in the bath step-by-step without washing out after each single dose. Higher concentrations were added only after the preceding contraction had reached a steady value. […] Antagonism of bradykinin responses in the presence of antagonist were determined by repeating the cumulative addition procedure for bradykinin after the tissue has been exposed to the antagonist for 5 minutes. Three or four different concentrations of antagonist are studied sequentially in the same preparations. Responses were expressed as a percentage of the maximum contraction elicited by bradykinin in the absence of antagonist. pA2 values were calculated by Schild analysis.

For data set [2] the following is noted: anesthetized rat, intra-aortic vs intravenous administration; cited from earlier work.
The conditions of data set [3]: cited from earlier work.

For `CCCO[C@H]1C[C@H](C(=O)N2Cc3ccccc3C[C@H]2C(=O)N[C@@H](CCCNC(=N)N)C(=O)O)N(C(=O)[C@H](CO)NC(=O)[C@H](Cc2cccs2)NC(=O)CNC(=O)[C@@H]2C[C@@H](O)CN2C(=O)[C@@H]2CCCN2C(=O)[C@H](CCCNC(=N)N)NC(=O)[C@H](N)CCCNC(=N)N)C1` [D-Arg-Arg-Pro-4Hyp-Gly-Thi-Ser-(D-4-Hydroxyproline trans propyl ether)-Tic-Arg], on bradykinin receptor, the Ki stood at 0.59 nM. Further, the Kb in data set [1] is 24.5 nM.
Turning to `CO[C@@H]1C[C@H](C(=O)N2Cc3ccccc3C[C@H]2C(=O)N[C@@H](CCCNC(=N)N)C(=O)O)N(C(=O)[C@H](CO)NC(=O)[C@H](Cc2cccs2)NC(=O)CNC(=O)[C@@H]2C[C@@H](O)CN2C(=O)[C@@H]2CCCN2C(=O)[C@H](CCCNC(=N)N)NC(=O)[C@H](N)CCCNC(=N)N)C1` [D-Arg-Arg-Pro-4Hyp-Gly-Thi-Ser-(D-4-hydroxyproline cis methyl ether)-Tic-Arg], the affinity at bradykinin receptor corresponds to a Ki of 164 ± 20 nM. The Kb in data set [1] is 5750 nM and 6310 nM.
As to `CCCO[C@@H]1C[C@H](C(=O)N2Cc3ccccc3C[C@H]2C(=O)N[C@@H](CCCNC(=N)N)C(=O)O)N(C(=O)[C@H](CO)NC(=O)[C@H](Cc2cccs2)NC(=O)CNC(=O)[C@@H]2C[C@@H](O)CN2C(=O)[C@@H]2CCCN2C(=O)[C@H](CCCNC(=N)N)NC(=O)[C@H](N)CCCNC(=N)N)C1` [D-Arg-Arg-Pro-4Hyp-Gly-Thi-Ser-(D-4-hydroxyproline cis propyl ether)-Tic-Arg], the affinity at bradykinin receptor, expressed as Ki, was 172 ± 45 nM. In data set [1], the Kb was 8910 nM and 3160 nM.
The molecule “D-Arg-Arg-Pro-4Hyp-Gly-Phe-Ser-D-Phe-Phe-Arg [reference compound]” showed a pA2 in data set [1] of 5.9.
On to `NC(N)=NCCC[C@H](NC(=O)[C@H](Cc1ccccc1)NC(=O)[C@@H]1CCCN1C(=O)[C@H](CO)NC(=O)[C@H](Cc1ccccc1)NC(=O)CNC(=O)[C@@H]1CCCN1C(=O)[C@@H]1CCCN1C(=O)[C@@H](N)CCCN=C(N)N)C(=O)O` [bradykinin, Arg Pro Pro Gly Phe Ser Pro Phe Arg] (H-RPPGFSPFR-OH), for which, in data set [2], the “destruction on a single passage through the pulmonary circulation” value is listed as 98-99%. Further, the “half life in the systemic circulation” value in data set [3] is on record as “less than 30 seconds”.
`CO[C@H]1C[C@H](C(=O)N2Cc3ccccc3C[C@H]2C(=O)N[C@@H](CCCNC(=N)N)C(=O)O)N(C(=O)[C@H](CO)NC(=O)[C@H](Cc2cccs2)NC(=O)CNC(=O)[C@@H]2C[C@@H](O)CN2C(=O)[C@@H]2CCCN2C(=O)[C@H](CCCNC(=N)N)NC(=O)[C@H](N)CCCNC(=N)N)C1` [D-Arg-Arg-Pro-4Hyp-Gly-Thi-Ser-(D-4-hydroxyproline trans methyl ether)-Tic-Arg] registered a Ki at bradykinin receptor of 1.54 nM. In addition, in data set [1], the Kb was 186 nM.

The values are drawn from patent US6770741B1, “Brandykinin antagonist peptides” (Scios Inc., priority 1991, dated 2004).
